Results from patent US20240216272A1, “PHARMACEUTICAL PREPARATION” (KOWA COMPANY, LTD., priority 2014, published 2024).

Key:
Assay type in all cases: physicochemical
[1] = Test Example 2: photostability of ripasudil in an aqueous composition; conditions: D65 lamp; for Analogs (%): aqueous composition 0.4 g/100 mL as free form, pH 6.0, transparent polypropylene container, 25° C.
Experimental: (§1) In the following test examples, ripasudil monohydrochloride dihydrate can be produced in accordance with the method described in WO2006/057397, for example. Moreover, in the following test examples, measurement of ripasudil and its analogs using HPLC was performed using an ODS column as the column, 0.01 mol/L phosphate buffer and acetonitrile as the mobile phase, and an ultraviolet absorptiometer (wavelength: 280 nm) as the detector.
The stability of ripasudil incorporated in an aqueous composition with respect to light was evaluated by examining the presence or absence of degradation products formed by exposure to light, as in Test Example 1.
Specifically, an aqueous composition containing, per 100 mL, 0.4896 g of ripasudil monohydrochloride dihydrate (0.4 g, as the free form of ripasudil), 0.4 g of anhydrous sodium dihydrogen phosphate, 2.136 g of glycerin, 0.002 g of benzalkonium chloride, an appropriate amount of sodium hydroxide (pH 6.0), and sterile purified water (balance) was prepared, and this aqueous composition was stored in a transparent container made of polypropylene. The aqueous composition was then irradiated with 4000 lux of light to give a cumulative radiation dose of 300,000, 600,000, or 1,200,000 lux·hr, at 25° C., with a D65 fluorescent lamp as the light source, using a photostability tester (LT-120A: Nagano Science Corporation).
To examine the presence or absence of photodegradation products of ripasudil, the presence or absence of an increase in the amount of ripasudil analogs was evaluated. The amount of analogs was evaluated as the area percentage (%) relative to the total peak area derived from ripasudil and its analogs, using HPLC.

[2] = Test Example 1: photostability of ripasudil (powder), analogs by HPLC; conditions: for Analogs (%): powder in glass petri dish, D65 fluorescent lamp 4000 lux, 25° C.
Experimental: as §1
The stability of ripasudil with respect to light was evaluated by examining the presence or absence of degradation products formed by exposure to light.
Specifically, powdery ripasudil monohydrochloride dihydrate was spread in a glass petri dish to a thickness of 3 mm or less, and then irradiated with 4000 lux of light to give a cumulative radiation dose of 400,000, 800,000, or 1,200, 000 lux·hr, at 25° C., with a D65 fluorescent lamp as the light source, using a photostability tester (LT-120A: Nagano Science Corporation).
To examine the presence or absence of photodegradation products of ripasudil, the presence or absence of an increase in the amount of ripasudil analogs was evaluated for the sample before and after exposure to light. The amount of analogs was evaluated as the ratio (%) of the peak area of analogs relative to the peak area of ripasudil, using HPLC.

[3] = Test Example 10: Preservation Test No. 4, precipitation of crystals at 0° C.; design: key to Presence or Absence of Precipitation of Crystals: the absence of precipitation of crystals was rated as “a”; the presence of precipitation of crystals was rated as “b”
Experimental: An aqueous composition of the formulation shown in Table 13 was prepared in accordance with a conventional method, and then placed in a container made of polyethylene terephthalate (PET) to produce a pharmaceutical preparation. The resulting pharmaceutical preparation was preserved at 0° C. for 21 days, and then visually evaluated for the presence or absence of precipitation of crystals. Note that the absence of precipitation of crystals was rated as “a”, and the presence of precipitation of crystals was rated as “b”. [table]

[4] = Test Example 8: Preservation Test No. 2, color difference (ΔYI) at 60° C.; conditions: for ΔYI: aqueous composition of Table 9 (boric acid, pH 6.7), 60° C. for 3 months; for Evaluation (ΔYI): aqueous composition of Table 9, 60° C. for 3 months
Experimental: An aqueous composition of the formulation shown in Table 9 was prepared in accordance with a conventional method, and then placed in a container made of polyethylene (PE) or polypropylene (PP) to produce a pharmaceutical preparation. Each of the resulting pharmaceutical preparations was preserved at 60° C. for 3 months, and a color difference (ΔYI) before and after the preservation was measured using a color difference meter (spectrophotometer, CM-700d: Konica Minolta Sensing, Inc.). A ΔYI value of 5 or more was rated as “b”, and a ΔYI value of less than 5 was rated as “a”. [table]

[5] = Test Example 9: Preservation Test No. 3, precipitation of crystals at 0° C.; design: key to Presence or Absence of Precipitation of Crystals: the absence of precipitation of crystals was rated as “a”; the presence of precipitation of crystals was rated as “b”; conditions: for Presence or Absence of Precipitation of Crystals: aqueous composition of Table 11 (phosphate, pH 6.7), 0° C. for 2 days; for precipitation of crystals: preserved at low temperature, in words
Experimental: An aqueous composition of the formulation shown in Table 11 was prepared in accordance with a conventional method, and then placed in a container made of polyethylene terephthalate (PET) or polyvinyl chloride (PVC) to produce a pharmaceutical preparation. Each of the resulting pharmaceutical preparations was preserved at 0° C. for 2 days, and then visually evaluated for the presence or absence of precipitation of crystals. Note that the absence of precipitation of crystals was rated as “a”, and the presence of precipitation of crystals was rated as “b”. [table]

Analogs (%) ([1]; 300,000 lux·hr): 1.29%
Analogs (%) ([1]; 600,000 lux·hr): 1.95%
Analogs (%) ([1]; 1,200,000 lux·hr): 3.67%
Analogs (%) ([1]; before exposure to light): 0.17%
Analogs (%) ([2]; before exposure to light): 0.11%
Analogs (%) ([2]; cumulative radiation dose 400,000 lux·hr): 0.14%
Analogs (%) ([2]; cumulative radiation dose 800,000 lux·hr): 0.16%
Analogs (%) ([2]; cumulative radiation dose 1,200,000 lux·hr): 0.16%
Presence or Absence of Precipitation of Crystals ([3]; aqueous composition of Table 13 (boric acid, pH 6.7), 0° C. for 21 days, container PET): a
ΔYI ([4]; container PE): 4.15
ΔYI ([4]; container PP): 4.64
Presence or Absence of Precipitation of Crystals ([5]; container PET): a
Presence or Absence of Precipitation of Crystals ([5]; container PVC): b
precipitation of crystals ([5]; container made of PVC): precipitation of crystals was observed
SMILES: C[C@H]1CNCCCN1S(=O)(=O)c1cccc2cncc(F)c12 [ripasudil, 4-fluoro-5-[[(2S)-2-methyl-1,4-diazepan-1-yl]sulfonyl]isoquinoline]
formation of degradation products due to exposure to light ([1]; aqueous composition, transparent polypropylene container, in words): degradation products due to exposure to light are formed
formation of photodegradation products ([2]; powder, up to 1,200,000 lux·hr, in words): no formation of photodegradation products was observed
precipitation of crystals ([3]; changed formulation, preserved at low temperature, container made of PET, in words): no precipitation of crystals was observed
Evaluation (ΔYI) ([4]; container PE): a (a ΔYI value of less than 5 was rated as “a”)
Evaluation (ΔYI) ([4]; container PP): a (a ΔYI value of less than 5 was rated as “a”)
precipitation of crystals ([5]; container made of PET): no precipitation of crystals was observed
